Experiment [1] concerns barley α-glucosidase gene promoter. The experiment is described as follows: Transient expression in barley aleurone protoplasts, constructs with the α-glucosidase gene promoter. Format: cell-based. The following applies: protoplasts incubated in the presence of gibberellic acid, 25° C., 40 hours. From the text: It is possible to evaluate the expression levels directed by the barley α-glucosidase gene promoter by several methods. One such method is by transient expression assays performed with protoplasts prepared from aleurone layers of the barley cultivar Himalaya. This approach is not only used to evaluate the ability of different promoters to function in barley endosperm-derived tissues, including the aleurone tissue, but also to determine whether an expressed protein is secreted from the plant cell or whether the protein remains in the cell cytoplasm.
Protoplasts are transfected with a gene cassette of interest and incubated to allow the introduced gene to be expressed, and the corresponding protein allowed to accumulate in the cell or in the surrounding liquid medium. Following incubation at 25° C. for 40 hours in the presence or absence of gibberellic acid, the cells and the growth medium are assayed for the presence of the protein encoded by the transgene in order to determine the efficiency of the promoter which drives transgene expression.
A protocol for the preparation and transfection of barley aleurone protoplasts has been published by Skriver et al., (1991, supra). […]

In experiment [2] the test system is barley cystatin-1 gene promoter. The experiment is described as follows: Transient expression in barley aleurone protoplasts, cys1 promoter deletion constructs fused to β-glucuronidase, normalised to luciferase. Format: cell-based. To be noted: 1 μM phytohormone, 40-hour incubation at 20° C.; β-glucuronidase activity divided by luciferase activity. As for the experimental part:
Barley aleurone protoplasts were prepared as described in Example 4, and separate protoplast aliquots were co-transfected with plasmid pAHC18 carrying the luciferase gene under control of the gene promoter derived from a constitutively expressed maize ubitiquitin gene (Bruce et al., 1989, Proc. Natl. Acad. Sci. USA 86:9692-9696), and one of the eight expression plasmids containing 5' deletions of the cystatin-1 gene promoter, as described above. The molar concentration of pAHC 18 was half of that of the reporter plasmid directing expression of β-glucuronidase. Incubation of the protoplasts with 1 μM gibberellic acid or 1 μM abscisic acid were performed in order to analyse possible, regulative effects of the phytohormones on […] gene expression, and identify the location of possible hormone responsive cis-acting gene elements. After a 40-hour incubation at 20° C., the protoplasts were harvested and the level of β-glucuronidase and luciferase activities determined as described by Leah et al. (1994, supra). The relative β-glucuronidase activity in individual samples was calculated by dividing the measured activity by the measured luciferace activity, thereby allowing differences in transformation efficiency to be corrected for.

On to `C=C1C[C@]23C[C@@]1(O)CC[C@H]2[C@@]12C=C[C@H](O)[C@@](C)(C(=O)O1)[C@H]2[C@@H]3C(=O)O` [gibberellic acid], for which the “activity derived from heterologously expressed enzymes” value in experiment [1] is given as “enhanced levels of activity”. The “relative expression of β-glucuronidase” value in experiment [2] was “slight depression”.

Consider `CC1=CC(=O)CC(C)(C)[C@@]1(O)/C=C/C(C)=C\C(=O)O` [abscisic acid], for which the “relative expression of β-glucuronidase” value in experiment [2] is given as “increased”.
